Measurements: PubChem BioAssay AID200 (DTP/NCI, 2004)
Where “and” joins values, the source holds several entries; their conditions need not be identical. Identical values can stand only once. Toxic doses and inconclusive results are not listed. Where a SMILES comes first, the peptide text is derived from it. [ ]: non-standard residue; d: D form. The star is where a group is joined. Cbz = O=C(OCc1ccccc1)*; Nva = CCC[CH](N)C(=O)O

System: B6C3F1 mice, B16 melanoma ip, median survival T/C
Assay: NCI In Vivo Anticancer Drug Screen. Data for tumor model B16 Melanoma (intraperitoneal) in B6C3F1 mice
Conditions: endpoint: median survival time, schedule: Q01DX009 (ip), higher = longer survival
Summary of the method: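 Mice bearing transplanted tumor were dosed with compound or vehicle, and survival was recorded. Activity is expressed as the treated-group measurement (T) divided by the vehicle control measurement (C).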

[1] = dose: 6.25 mg/kg/injection, vehicle: saline
[2] = dose: 12.5 mg/kg/injection, vehicle: saline
[3] = dose: 25.0 mg/kg/injection, vehicle: saline with Tween-80
[4] = dose: 50.0 mg/kg/injection, vehicle: saline with Tween-80
[5] = dose: 100.0 mg/kg/injection, vehicle: saline with Tween-80
[6] = dose: 400.0 mg/kg/injection, vehicle: saline with Tween-80
[7] = dose: 100.0 mg/kg/injection, vehicle: Klucel (hydroxypropylcellulose) (HPC)
[8] = dose: 200.0 mg/kg/injection, vehicle: Klucel (hydroxypropylcellulose) (HPC)
[9] = dose: 400.0 mg/kg/injection, vehicle: Klucel (hydroxypropylcellulose) (HPC)
[10] = dose: 0.31 mg/kg/injection, vehicle: saline
[11] = dose: 0.62 mg/kg/injection, vehicle: saline
[12] = dose: 75.0 mg/kg/injection, vehicle: Klucel (hydroxypropylcellulose) (HPC)
[13] = dose: 50.0 mg/kg/injection, vehicle: Klucel (hydroxypropylcellulose) (HPC)

Question: What does the source list for `C[CH2][Sn]([CH2]C)([O]S(C)(=O)=O)[O]S(C)(=O)=O`?
Answer: T/C (dose: 0.78 mg/kg/injection, vehicle: saline): 92 % of control; T/C (dose: 0.79 mg/kg/injection, vehicle: saline): 102 % of control; T/C (dose: 1.56 mg/kg/injection, vehicle: saline): 98 % of control and 103 % of control; T/C (dose: 3.12 mg/kg/injection, vehicle: saline): 97 % of control and 103 % of control; T/C [1]: 108 % of control and 96 % of control; T/C [2]: 91 % of control and 99 % of control

Question: Which T/C [3] does the source give for `CCOC(=O)Nc1cc2c(c(N)n1)N=C(c1ccccc1)CO2` here?
Answer: 112 % of control and 118 % of control

Question: What about the T/C [4] of the same compound?
Answer: 111 % of control and 118 % of control

Question: What about the T/C [5] of the same compound?
Answer: 115 % of control and 124 % of control

Question: What about the T/C (dose: 103.68 mg/kg/injection, vehicle: saline with Tween-80) of the same compound?
Answer: 106 % of control

Question: What about the T/C [6] of the same compound?
Answer: 150 % of control and 198 % of control

Question: What about the T/C (dose: 480.0 mg/kg/injection, vehicle: saline with Tween-80) of the same compound?
Answer: 165 % of control

Question: And the T/C (dose: 800.0 mg/kg/injection, vehicle: saline with Tween-80)?
Answer: 172 % of control

Question: With `C[n+]1c(-c2cccc(OCCOCCOc3cccc(-c4c5cc(N)ccc5c5ccc(N)cc5[n+]4C)c3)c2)c2cc(N)ccc2c2ccc(N)cc21` as the compound, how does the T/C (dose: 0.25 mg/kg/injection, vehicle: distilled water + Tween-80) read?
Answer: 99 % of control

Question: What about the T/C (dose: 0.5 mg/kg/injection, vehicle: distilled water + Tween-80) of the same compound?
Answer: 107 % of control

Question: And the T/C (dose: 1.0 mg/kg/injection, vehicle: distilled water + Tween-80)?
Answer: 117 % of control

Question: Which T/C [7] does the source give for `O=C(O)CNC(=O)CNC(=O)CNC(=O)CNC(=O)CNC(=O)OCc1ccccc1` here?
Answer: 111 % of control

Question: What about the T/C [8] of the same compound?
Answer: 96 % of control

Question: What about the T/C [9] of the same compound?
Answer: 97 % of control

Question: What does the source list for `O=CCC(O)C(O)C(O)CO` (configuration not stated)?
Answer: T/C (dose: 300.0 mg/kg/injection, vehicle: saline): 112 % of control; T/C (dose: 600.0 mg/kg/injection, vehicle: saline): 103 % of control; T/C (dose: 1200.0 mg/kg/injection, vehicle: saline): 104 % of control; T/C (dose: 1800.0 mg/kg/injection, vehicle: saline): 108 % of control; T/C (dose: 2400.0 mg/kg/injection, vehicle: saline): 101 % of control

Question: How did the T/C (dose: 0.75 mg/kg/injection, vehicle: other) turn out when `CCC1(O)C(=O)OCc2c1cc1n(c2=O)Cc2cc3ccccc3nc2-1` (configuration not stated) was run?
Answer: 156 % of control

Question: And the T/C (dose: 1.5 mg/kg/injection, vehicle: other)?
Answer: 165 % of control

Question: What does the source list for `C=C(C)[C@H]1CN[C@H](C(=O)O)[C@H]1CC(=O)O`?
Answer: T/C [10]: 96 % of control; T/C [11]: 100 % of control; T/C (dose: 1.25 mg/kg/injection, vehicle: saline): 91 % of control; T/C (dose: 2.5 mg/kg/injection, vehicle: saline): 100 % of control; T/C (dose: 5.0 mg/kg/injection, vehicle: saline): 90 % of control; T/C [1]: 102 % of control; T/C (dose: 10.0 mg/kg/injection, vehicle: saline): 86 % of control; T/C [2]: 101 % of control; T/C (dose: 25.0 mg/kg/injection, vehicle: saline): 93 % of control

Question: Which results are given for `CCCC(NC(=O)OCc1ccccc1)C(=O)NC(CCSC)C(N)=O` (configuration not stated) (Cbz-[Nva]-Met-NH2; configuration not given here)?
Answer: T/C [7]: 104 % of control; T/C [8]: 103 % of control; T/C [9]: 93 % of control

Question: For `NCCCNCCCCNC(=O)C(O)NC(=O)CCCCCCN=C(N)N` (configuration not stated), which T/C [1] is on record?
Answer: 108 % of control

Question: What about the T/C [2] of the same compound?
Answer: 95 % of control

Question: What does the source list for `NS(=O)(=O)c1cc2c(cc1Cl)NC=NS2(=O)=O`?
Answer: T/C (dose: 37.5 mg/kg/injection, vehicle: Klucel (hydroxypropylcellulose) (HPC)): 94 % of control; T/C [12]: 90 % of control; T/C (dose: 150.0 mg/kg/injection, vehicle: Klucel (hydroxypropylcellulose) (HPC)): 95 % of control; T/C (dose: 300.0 mg/kg/injection, vehicle: Klucel (hydroxypropylcellulose) (HPC)): 88 % of control

Question: With `NC(=O)/C=C/c1c[nH]c2nccnc12` as the compound, how does the T/C (dose: 1.56 mg/kg/injection, vehicle: water) read?
Answer: 86 % of control

Question: What about the T/C (dose: 3.12 mg/kg/injection, vehicle: water) of the same compound?
Answer: 93 % of control

Question: What about the T/C (dose: 6.25 mg/kg/injection, vehicle: water) of the same compound?
Answer: 95 % of control

Question: What about the T/C (dose: 12.5 mg/kg/injection, vehicle: water) of the same compound?
Answer: 102 % of control

Question: And the T/C (dose: 25.0 mg/kg/injection, vehicle: water)?
Answer: 108 % of control

Question: With `Cc1cccc(Nc2c(N)nc(N)nc2N)c1` as the compound, how does the T/C [13] read?
Answer: 102 % of control

Question: What about the T/C [12] of the same compound?
Answer: 99 % of control

Question: For `COc1cc(C(=O)c2cc3c(cc2C)OCO3)cc(OC)c1OC`, which T/C (dose: 6.25 mg/kg/injection, vehicle: Klucel (hydroxypropylcellulose) (HPC)) is on record?
Answer: 94 % of control

Question: And the T/C (dose: 12.5 mg/kg/injection, vehicle: Klucel (hydroxypropylcellulose) (HPC))?
Answer: 100 % of control

Question: What about the T/C (dose: 25.0 mg/kg/injection, vehicle: Klucel (hydroxypropylcellulose) (HPC)) of the same compound?
Answer: 108 % of control

Question: What about the T/C [13] of the same compound?
Answer: 117 % of control and 106 % of control

Question: What does the source list for `Cc1c2cc[n+](CCO)cc2c(C)c2c1[nH]c1ccc(O)cc12`?
Answer: T/C [10]: 113 % of control; T/C [11]: 91 % of control

Question: For `Cc1c(C)c2c(c(C)c1OC(=O)CCC(=O)O)CCC(C)(CCCC(C)CCCC(C)CCCC(C)C)O2` (configuration not stated), which T/C (dose: 25.0 mg/kg/injection, vehicle: distilled water + Tween-80 + alcohol) is on record?
Answer: 96 % of control

Question: And the T/C (dose: 50.0 mg/kg/injection, vehicle: distilled water + Tween-80 + alcohol)?
Answer: 112 % of control

Question: And the T/C (dose: 100.0 mg/kg/injection, vehicle: distilled water + Tween-80 + alcohol)?
Answer: 114 % of control

Question: And the T/C (dose: 200.0 mg/kg/injection, vehicle: distilled water + Tween-80 + alcohol)?
Answer: 86 % of control

Question: For `COc1cc2cc3c(c(O)c2c(O)c1/C=C/C(C)C)C(=O)CC(C)(OC(C)=O)C3` (configuration not stated), which T/C (dose: 0.62 mg/kg/injection, vehicle: Klucel (hydroxypropylcellulose) (HPC)) is on record?
Answer: 98 % of control

Question: And the T/C (dose: 0.63 mg/kg/injection, vehicle: Klucel (hydroxypropylcellulose) (HPC))?
Answer: 104 % of control

Question: And the T/C (dose: 1.25 mg/kg/injection, vehicle: Klucel (hydroxypropylcellulose) (HPC))?
Answer: 109 % of control and 112 % of control

Question: And the T/C (dose: 2.5 mg/kg/injection, vehicle: Klucel (hydroxypropylcellulose) (HPC))?
Answer: 115 % of control and 122 % of control

Question: And the T/C (dose: 10.0 mg/kg/injection, vehicle: Klucel (hydroxypropylcellulose) (HPC))?
Answer: 100 % of control

Question: Which results are given for `Cn1c2c(c3ccccc3c1=O)C(=O)c1ccccc1-2`?
Answer: T/C (dose: 3.13 mg/kg/injection, vehicle: saline with Tween-80): 114 % of control; T/C (dose: 6.25 mg/kg/injection, vehicle: saline with Tween-80): 105 % of control; T/C (dose: 12.5 mg/kg/injection, vehicle: saline with Tween-80): 98 % of control and 101 % of control; T/C [3]: 104 % of control; T/C [4]: 96 % of control; T/C [5]: 102 % of control; T/C (dose: 200.0 mg/kg/injection, vehicle: saline with Tween-80): 94 % of control; T/C [6]: 88 % of control

Question: How did the T/C (dose: 100.0 mg/kg/injection, vehicle: saline) turn out when `CC(C)(C#CC(C)(C)OC(=O)Nc1ccccc1)OC(=O)Nc1ccccc1` was run?
Answer: 106 % of control

Question: And the T/C (dose: 200.0 mg/kg/injection, vehicle: saline)?
Answer: 100 % of control

Question: What about the T/C (dose: 400.0 mg/kg/injection, vehicle: saline) of the same compound?
Answer: 98 % of control
